{"source": "patent US9962350B2", "about": "“Agent for improving normal development rate of fertilized eggs” (SBI Pharmaceuticals Co., Ltd., priority 2014, dated 2018)", "test_system": "C57BL/6J in vitro fertilized eggs", "assay": "Low-temperature in vitro culture of in vitro fertilization-derived fertilized eggs in KSOM or mWM with ALA; embryo development", "type": "cell-based, mouse", "description": "5 U (units) of equine chorionic gonadotropin (serum gonadotropin) (ASKA Pharmaceutical Co., Ltd.) were intraperitoneally administered to each female mouse of the C57BL/6J lineage (3.9 weeks old to 4.0 weeks old). […], 5 U (units) of gonadotropin (human chorionic gonadotropin) (ASKA Pharmaceutical Co., Ltd.) were intraperitoneally administered thereto for controlled ovarian hyperstimulation. 15 hours after the administration of gonadotropin, the oviducts were recovered by opening the abdomens. In mineral oil, the ampullae of the oviducts were incised with a dissecting needle, and the ova were recovered into a drop of mHTF medium (ARK Resource Co., Ltd.). Sperms were recovered from the cauda epididymides of C57BL/6J male mice and cultured in mHTF medium at 37° C. for 40 minutes to 1 hour under 5% CO2 conditions for capacitation. 2 μl to 4 μl of the mHTF medium containing the sperms was added to the medium drop containing the recovered ova for insemination, and cultured at 37° C. under 5% CO2 conditions. 4 hours to 6 hours after the insemination, the fertilized eggs were washed with KSOM (ARK Resource Co., Ltd.) or mWM (ARK Resource Co., Ltd.) to remove cumulus cells and sperms. The fertilized eggs were temporarily cultured in KSOM or mWM in an incubator of 37° C. and 5% CO2 until all of the fertilized eggs were recovered.\n25 of the fertilized eggs per drop were transferred to a drop (covered with mineral oil (Sigma-Aldrich Corp.)) consisting of 100 μl of ALA-unsupplemented or ALA-supplemented (1 μM or 3 μM) medium (KSOM or mWM). Subsequently, the fertilized eggs were cultured under three conditions: a condition of 37° C. and 5% CO2, a condition of 35° C. and 5% CO2, and a condition of 35.5° C. and 5% CO2. The number of 2-cell eggs was counted 24 hours after the ovum recovery, and the number of blastocysts was counted 96 hours thereafter. Since the development of fertilized eggs obtained by in vitro fertilization is slightly slow, the number of blastocysts was also counted 120 hours after the ovum recovery. The development rate of embryos at each culture time was calculated on the basis of the number of 2-cell embryos 24 hours postfertilization defined as 100%. The results about KSOM are shown in Tables 14 and 15 and FIGS. 9 and 11. The results about mWM are shown in Tables 16 and 17 and FIGS. 10, 12, and 13.", "data": [{"compound": "NCC(=O)CCC(=O)O", "note": "[ALA, 5-aminolevulinic acid]", "values": [{"measurement": "The number of developed embryos in KSOM", "setting": "35° C., 1 μM ALA, 24 hr", "result": 61}, {"measurement": "The number of developed embryos in KSOM", "setting": "35° C., 1 μM ALA, 48 hr", "result": 27}, {"measurement": "development rate with the number of 2-cell embryos 24 hours postfertilization in KSOM defined as 100%", "setting": "35° C., 1 μM ALA, 48 hr", "result": 44, "unit": "%"}, {"measurement": "The number of developed embryos in KSOM", "setting": "35° C., 1 μM ALA, 72 hr", "result": 26}, {"measurement": "development rate with the number of 2-cell embryos 24 hours postfertilization in KSOM defined as 100%", "setting": "35° C., 1 μM ALA, 72 hr", "result": 43, "unit": "%"}, {"measurement": "The number of developed embryos in KSOM", "setting": "35° C., 1 μM ALA, 120 hr", "result": 22}, {"measurement": "development rate with the number of 2-cell embryos 24 hours postfertilization in KSOM defined as 100%", "setting": "35° C., 1 μM ALA, 120 hr (blastocysts)", "result": 36, "unit": "%"}, {"measurement": "The number of developed embryos in mWM", "setting": "35° C., 1 μM ALA, 24 hr", "result": 51}, {"measurement": "The number of developed embryos in mWM", "setting": "35° C., 1 μM ALA, 48 hr", "result": 55}, {"measurement": "development rate with the number of 2-cell embryos 24 hours postfertilization in mWM defined as 100%", "setting": "35° C., 1 μM ALA, 48 hr", "result": 108, "unit": "%"}, {"measurement": "The number of developed embryos in mWM", "setting": "35° C., 1 μM ALA, 72 hr", "result": 46}, {"measurement": "development rate with the number of 2-cell embryos 24 hours postfertilization in mWM defined as 100%", "setting": "35° C., 1 μM ALA, 72 hr", "result": 90, "unit": "%"}, {"measurement": "The number of developed embryos in mWM", "setting": "35° C., 1 μM ALA, 96 hr", "result": 29}, {"measurement": "development rate with the number of 2-cell embryos 24 hours postfertilization in mWM defined as 100%", "setting": "35° C., 1 μM ALA, 96 hr (blastocysts)", "result": 53, "unit": "%"}, {"measurement": "The number of developed embryos in KSOM", "setting": "35° C., 3 μM ALA, 24 hr", "result": 60}, {"measurement": "The number of developed embryos in KSOM", "setting": "35° C., 3 μM ALA, 48 hr", "result": 29}, {"measurement": "development rate with the number of 2-cell embryos 24 hours postfertilization in KSOM defined as 100%", "setting": "35° C., 3 μM ALA, 48 hr", "result": 48, "unit": "%"}, {"measurement": "The number of developed embryos in KSOM", "setting": "35° C., 3 μM ALA, 72 hr", "result": 27}, {"measurement": "development rate with the number of 2-cell embryos 24 hours postfertilization in KSOM defined as 100%", "setting": "35° C., 3 μM ALA, 72 hr", "result": 45, "unit": "%"}, {"measurement": "The number of developed embryos in KSOM", "setting": "35° C., 3 μM ALA, 120 hr", "result": 16}, {"measurement": "development rate with the number of 2-cell embryos 24 hours postfertilization in KSOM defined as 100%", "setting": "35° C., 3 μM ALA, 120 hr (blastocysts)", "result": 27, "unit": "%"}, {"measurement": "The number of developed embryos in mWM", "setting": "35° C., 3 μM ALA, 24 hr", "result": 52}, {"measurement": "The number of developed embryos in mWM", "setting": "35° C., 3 μM ALA, 48 hr", "result": 44}, {"measurement": "development rate with the number of 2-cell embryos 24 hours postfertilization in mWM defined as 100%", "setting": "35° C., 3 μM ALA, 48 hr", "result": 85, "unit": "%"}, {"measurement": "The number of developed embryos in mWM", "setting": "35° C., 3 μM ALA, 72 hr", "result": 27}, {"measurement": "development rate with the number of 2-cell embryos 24 hours postfertilization in mWM defined as 100%", "setting": "35° C., 3 μM ALA, 72 hr", "result": 52, "unit": "%"}, {"measurement": "The number of developed embryos in mWM", "setting": "35° C., 3 μM ALA, 96 hr", "result": 20}, {"measurement": "development rate with the number of 2-cell embryos 24 hours postfertilization in mWM defined as 100%", "setting": "35° C., 3 μM ALA, 96 hr (blastocysts)", "result": 38, "unit": "%"}, {"measurement": "The number of developed embryos in mWM", "setting": "35.5° C., 1 μM ALA, 24 hr", "result": 60}, {"measurement": "The number of developed embryos in mWM", "setting": "35.5° C., 1 μM ALA, 48 hr", "result": 60}, {"measurement": "development rate with the number of 2-cell embryos 24 hours postfertilization in mWM defined as 100%", "setting": "35.5° C., 1 μM ALA, 48 hr", "result": 100, "unit": "%"}, {"measurement": "The number of developed embryos in mWM", "setting": "35.5° C., 1 μM ALA, 72 hr", "result": 49}, {"measurement": "development rate with the number of 2-cell embryos 24 hours postfertilization in mWM defined as 100%", "setting": "35.5° C., 1 μM ALA, 72 hr", "result": 82, "unit": "%"}, {"measurement": "The number of developed embryos in mWM", "setting": "35.5° C., 1 μM ALA, 96 hr", "result": 42}, {"measurement": "development rate with the number of 2-cell embryos 24 hours postfertilization in mWM defined as 100%", "setting": "35.5° C., 1 μM ALA, 96 hr (blastocysts)", "result": 70, "unit": "%"}, {"measurement": "The number of developed embryos in mWM", "setting": "35.5° C., 3 μM ALA, 24 hr", "result": 52}, {"measurement": "The number of developed embryos in mWM", "setting": "35.5° C., 3 μM ALA, 48 hr", "result": 52}, {"measurement": "development rate with the number of 2-cell embryos 24 hours postfertilization in mWM defined as 100%", "setting": "35.5° C., 3 μM ALA, 48 hr", "result": 100, "unit": "%"}, {"measurement": "The number of developed embryos in mWM", "setting": "35.5° C., 3 μM ALA, 72 hr", "result": 46}, {"measurement": "development rate with the number of 2-cell embryos 24 hours postfertilization in mWM defined as 100%", "setting": "35.5° C., 3 μM ALA, 72 hr", "result": 88, "unit": "%"}, {"measurement": "The number of developed embryos in mWM", "setting": "35.5° C., 3 μM ALA, 96 hr", "result": 39}, {"measurement": "development rate with the number of 2-cell embryos 24 hours postfertilization in mWM defined as 100%", "setting": "35.5° C., 3 μM ALA, 96 hr (blastocysts)", "result": 75, "unit": "%"}]}]}
